According to ChEMBL document CHEMBL6153110, “Peptide Double-Stapling and Arginine N-Glycosylation Triggered the Development of Therapeutic Antimicrobial Peptides Capable of Killing Drug-Resistant Bacteria in Mice” (J Med Chem, 2025):
Values after ≈ are worked out from the molar mass of the structure shown. Active and inactive are the calls of the source. The rule behind the calls is not given here. Positions of bridges follow the written chain, without caps; N, C: chain ends. Non-standard residues stand in square brackets, D forms with d. Residues, ends and D or L forms follow the SMILES beside them. Arg(Nω-βLac) = N=C(NCCC[C@H](N)C(=O)O)N[C@@H]1O[C@H](CO)[C@@H](O[C@@H]2O[C@H](CO)[C@H](O)[C@H](O)[C@H]2O)[C@H](O)[C@H]1O; S5 = C=CCCC[C@](C)(N)C(=O)O

Key:
Streptococcus pneumoniae = test: Antimicrobial activity against Streptococcus pneumoniae ATCC 49619 assessed as growth inhibition measured after 8 hrs incubation by standard broth dilution assay; format: functional
Staphylococcus aureus [1] = test: In vivo antibacterial activity against methicillin-resistant Staphylococcus aureus ATCC 43300 infected locally in full thickness skin wound mouse model assessed as reduction in inflammatory cells in wound at 4 mg/kg treated with absorbable gelatin sponge measured after 7 days; format: functional, organism-based; conditions: time 7.0 day
[2] = Hemolytic activity in BALB/c mouse red blood cells assessed as hemolysis incubated for 1 hrs; format: toxicity, cell-based, Erythrocyte; conditions: read-out: HD50
Staphylococcus aureus [3] = test: In vivo antibacterial activity against methicillin-resistant Staphylococcus aureus ATCC 43300 infected locally in full thickness skin wound mouse model assessed as decrease in edema and ulcerative tissue in wound at 4 mg/kg treated with absorbable gelatin sponge measured after 7 days; format: functional, organism-based; conditions: time 7.0 day
Cell membrane [4] = test: Induction of cell membrane damage in methicillin-resistant Staphylococcus aureus ATCC 43300 assessed as increase in green fluorescence at MIC measured after 1 hr incubation by SYTO9 confocal microscopy; format: subcellular
Klebsiella pneumoniae [5] = test: In vivo antibacterial activity against Klebsiella pneumoniae ATCC 13883 induced bacterial pneumonia mouse model assessed as reduction in bacterial infection induced IL-1beta level in lung tissue at 4 mg/kg, injected into trachea after 24 hrs of infection measured after 3 to 7 days; format: functional, organism-based
Pseudomonas aeruginosa = test: Antimicrobial activity against Pseudomonas aeruginosa ATCC 27853 assessed as growth inhibition measured after 8 hrs incubation by standard broth dilution assay; format: functional
Staphylococcus aureus [6] = test: In vivo antibacterial activity against methicillin-resistant Staphylococcus aureus ATCC 43300 infected locally in full thickness skin wound mouse model assessed as reduction in bacterial load in skin wound at 4 mg/kg treated with absorbable gelatin sponge measured after 7 days; format: functional, organism-based; conditions: time 7.0 day
Klebsiella pneumoniae [7] = test: Antibacterial activity against Klebsiella pneumoniae ATCC 13883 assessed as reduction in bacterial count at 4.6 ug/ml in bio-film adjusted BM2 medium; format: functional, organism-based; conditions: dose 4.6 µg/ml
Cell membrane [8] = test: Induction of cell membrane damage in methicillin-resistant Staphylococcus aureus ATCC 43300 assessed as corrugation, blebbing, breakage, and fragmentation at MIC measured after 1 hr incubation by Scanning electron microscopy; format: subcellular
Cell membrane [9] = test: Induction of cell membrane damage in Klebsiella pneumoniae ATCC 13883 assessed as increase in red fluorescence at MIC measured after 1 hr incubation by PI based confocal microscopy; format: subcellular
Klebsiella pneumoniae [10] = test: Antibiofilm activity in Klebsiella pneumoniae ATCC 13883 assessed as reduction in biofilm formation at 4.6 ug/ml measured after 24 hrs by crystal violet staining based assay relative to control; format: functional; set-up: scale not given: the % may be the effect or the level left; conditions: dose 4.6 µg/ml
Cell membrane [11] = test: Induction of cell membrane damage in methicillin-resistant Staphylococcus aureus ATCC 43300 assessed as increase in red fluorescence at MIC measured after 1 hr incubation by PI based assay; format: subcellular
Cell membrane [12] = test: Binding affinity to methicillin-resistant Staphylococcus aureus ATCC 43300 cell membrane treated with FITC labelled peptides at MIC measured after 1.5 hr by CLSM imaging analysis; format: subcellular
Klebsiella pneumoniae [13] = test: In vivo antibacterial activity against Klebsiella pneumoniae ATCC 13883 induced bacterial pneumonia mouse model assessed as reduction in bacterial infection induced TNF-alpha level in lung tissue at 4 mg/kg, injected into trachea after 24 hrs of infection measured after 3 to 7 days; format: functional, organism-based

CC(=O)N[C@@H](CCCCN)C(=O)N[C@@H](CCCCN)C(=O)N[C@@H](CCCNC(=N)N)C(=O)N[C@H](C(=O)N[C@@H](CCCCN)C(=O)N[C@@H](CCCCN)C(=O)N[C@@H](CCCNC(=N)N)C(=O)N[C@@]1(C)CCC/C=C\CCC[C@@](C)(C(=O)N[C@@H](CCCCN)C(=O)N[C@@]2(C)CCC/C=C\CCC[C@@](C)(C(=O)N[C@@H](CC(C)C)C(=O)N[C@@H](CCCCN)C(=O)N[C@@H](CCCCN)C(=O)N3CCC[C@H]3C(=O)N[C@H](C(=O)N[C@@H](CCCNC(=N)N[C@@H]3O[C@H](CO)[C@@H](O[C@@H]4O[C@H](CO)[C@H](O)[C@H](O)[C@H]4O)[C@H](O)[C@H]3O)C(N)=O)C(C)C)NC(=O)[C@H](CCCNC(=N)N)NC(=O)[C@H](Cc3c[nH]c4ccccc34)NC(=O)[C@H](Cc3ccc(O)cc3)NC2=O)NC(=O)[C@H](CC(C)C)NC(=O)[C@H](CCCCN)NC(=O)[C@H](Cc2ccccc2)NC1=O)C(C)C (Ac-KKRVKKR[S5]FKL[S5]K[S5]YWR[S5]LKKPV[Arg(Nω-βLac)]-NH2; staple (Z) 8-12, 14-18)
MIC (Streptococcus pneumoniae): 1.1 µg/mL (≈ 0.31 µM)
Activity (Staphylococcus aureus [1]): Active
HC50 at 1 h [2]: 87.6 µg/mL
Activity (Staphylococcus aureus [3]): Active
Activity (Cell membrane [4]): Active
Activity (Klebsiella pneumoniae [5]): Active
MIC (Pseudomonas aeruginosa): 1.1 µg/mL (≈ 0.31 µM)
Activity (Staphylococcus aureus [6]): Active
Activity (Klebsiella pneumoniae [7]): inactive
Activity (Cell membrane [8]): Active
Activity (Cell membrane [9]): Active
Activity (Klebsiella pneumoniae [10]): 98.18%
Activity (Cell membrane [11]): Active
Activity (Cell membrane [12]): Active; Compound Exhibited Brighter Red
Activity (Klebsiella pneumoniae [13]): Active
